Drawing on patent publication US10683269B2 (MISSION THERAPEUTICS LIMITED, priority 2016, dated 2020), this text covers IC50 for 42 compounds.

The structures appear in SMILES notation. Bounds are passed on as bounds.

T1 sequence (Q93009 whole entry): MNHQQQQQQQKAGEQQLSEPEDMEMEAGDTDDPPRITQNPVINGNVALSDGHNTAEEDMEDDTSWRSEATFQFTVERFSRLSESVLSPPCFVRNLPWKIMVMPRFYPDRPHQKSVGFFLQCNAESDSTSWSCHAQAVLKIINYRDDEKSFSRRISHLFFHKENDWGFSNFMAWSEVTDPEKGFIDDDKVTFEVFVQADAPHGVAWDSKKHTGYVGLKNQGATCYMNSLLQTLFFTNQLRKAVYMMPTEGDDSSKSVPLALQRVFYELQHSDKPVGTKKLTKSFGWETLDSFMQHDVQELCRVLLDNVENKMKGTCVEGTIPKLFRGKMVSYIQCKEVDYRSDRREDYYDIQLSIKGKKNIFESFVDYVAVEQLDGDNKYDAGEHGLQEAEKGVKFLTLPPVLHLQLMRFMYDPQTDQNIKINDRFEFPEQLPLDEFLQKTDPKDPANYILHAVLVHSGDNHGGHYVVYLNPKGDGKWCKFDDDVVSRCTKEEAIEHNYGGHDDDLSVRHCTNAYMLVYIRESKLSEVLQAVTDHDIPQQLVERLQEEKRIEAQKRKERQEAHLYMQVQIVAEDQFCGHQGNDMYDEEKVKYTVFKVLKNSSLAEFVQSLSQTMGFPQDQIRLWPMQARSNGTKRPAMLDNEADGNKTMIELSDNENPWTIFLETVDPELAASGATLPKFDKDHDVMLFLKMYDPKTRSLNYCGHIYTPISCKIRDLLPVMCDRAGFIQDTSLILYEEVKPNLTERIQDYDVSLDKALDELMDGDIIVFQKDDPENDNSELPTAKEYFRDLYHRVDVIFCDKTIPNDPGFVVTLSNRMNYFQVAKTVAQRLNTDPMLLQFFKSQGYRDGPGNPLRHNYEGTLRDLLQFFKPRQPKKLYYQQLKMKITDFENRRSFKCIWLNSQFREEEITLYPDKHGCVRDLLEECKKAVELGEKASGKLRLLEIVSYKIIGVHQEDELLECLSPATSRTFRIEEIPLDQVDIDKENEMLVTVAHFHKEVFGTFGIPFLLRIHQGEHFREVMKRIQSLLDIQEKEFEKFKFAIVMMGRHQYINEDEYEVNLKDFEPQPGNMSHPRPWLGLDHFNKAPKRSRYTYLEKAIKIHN

This assay concerns the target T1, USP7 (Homo sapiens, UniProt Q93009).
T1 construct: The USP7 construct was PCR amplified and cloned into a pFLAG-CMV-6a vector (Sigma-Aldrich) with an N-terminal FLAG tag; made in house; host or cells: HEK293T
Description: USP7 biochemical IC50 assay (fluorescence polarisation, TAMRA labelled peptide linked to ubiquitin via an iso-peptide bond). The settings on record: 30 min pre-incubation of enzyme and compound, read after 2 hr incubation at room temperature, read-out: IC50 range. The gist of the method:
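Fluorescence polarisation at 540 nm excitation/590 nm emission, read immediately and after 2 hr at room temperature, following addition of 50 nM TAMRA-labelled iso-peptide ubiquitin substrate.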
For `CNC(=O)c1cc2c(c(-c3ccc(F)cc3)c1)CN(C#N)C2` [Example 240, 2-cyano-7-(4-fluorophenyl)-N-methylisoindoline-5-carboxamide], the IC50 was under 1000 nM.

In the case of `N#Cc1ccccc1-c1cc(C(N)=O)cc2c1CN(C#N)C2` [Example 241, 2-cyano-7-(2-cyanophenyl)isoindoline-5-carboxamide], the IC50 lay within 1000 to 10000 nM. The same measure for `CS(=O)(=O)Nc1cc2c(c(-c3ccccc3C#N)c1)CN(C#N)C2` [Example 242, N-(2-cyano-7-(2-cyanophenyl)isoindolin-5-yl)methanesulfonamide]: 1000 to 10000 nM; for `CS(=O)(=O)Nc1cc2c(c(-c3ccc(C#N)cc3C#N)c1)CN(C#N)C2` [Example 243, N-(2-cyano-7-(2,4-dicyanophenyl)isoindolin-5-yl)methanesulfonamide]: 1000 to 10000 nM; for `CS(=O)(=O)Nc1cc2c(c(-c3ccc(C#N)cc3)c1)CN(C#N)C2` [Example 244, N-(2-cyano-7-(4-cyanophenyl)isoindolin-5-yl)methanesulfonamide]: 1000 to 10000 nM. As to `COc1ccc(C#N)c(-c2cc(NS(C)(=O)=O)cc3c2CN(C#N)C3)c1` [Example 245, N-(2-cyano-7-(2-cyano-5-methoxyphenyl)isoindolin-5-yl)methanesulfonamide], the IC50 was in the range of 1000 to 10000 nM. As for `N#CN1Cc2nc(NCC3CCOCC3)cc(-c3ccc(F)cc3)c2C1` [Example 246, 4-(4-fluorophenyl)-2-(((tetrahydro-2H-pyran-4-yl)methyl)amino)-5,7-dihydro-6H-pyrrolo[3,4-b]pyridine-6-carbonitrile], the IC50 lay within 1000 to 10000 nM.

Take `N#CN1Cc2nc(NCc3ccccn3)cc(-c3ccc(F)cc3)c2C1` [Example 247, 4-(4-fluorophenyl)-2-((pyridin-2-ylmethyl)amino)-5,7-dihydro-6H-pyrrolo[3,4-b]pyridine-6-carbonitrile]: the IC50 is 1000 to 10000 nM. With `Cn1nccc1CNc1cc(-c2ccc(F)cc2)c2c(n1)CN(C#N)C2` [Example 248, 4-(4-fluorophenyl)-2-(((1-methyl-1H-pyrazol-5-yl)methyl)amino)-5,7-dihydro-6H-pyrrolo[3,4-b]pyridine-6-carbonitrile] the figure was under 1000 nM; with `CC(=O)Nc1cc(-c2ccc(F)cc2)c2c(n1)CN(C#N)C2` [Example 249, N-(6-cyano-4-(4-fluorophenyl)-6,7-dihydro-5H-pyrrolo[3,4-b]pyridin-2-yl)acetamide], 1000 to 10000 nM. With `N#CN1Cc2nc(NCC(O)CO)cc(-c3ccc(F)cc3)c2C1` (stereo not drawn) [Example 250, 2-((2,3-dihydroxypropyl)amino)-4-(4-fluorophenyl)-5,7-dihydro-6H-pyrrolo[3,4-b]pyridine-6-carbonitrile] the figure was 1000 to 10000 nM; with `CN(C)C(=O)Cc1cc2c(c(-c3ccccc3)c1)CN(C#N)C2` [Example 251, 2-(2-cyano-7-phenylisoindolin-5-yl)-N,N-dimethylacetamide], 1000 to 10000 nM; with `CS(=O)(=O)CCc1cc2c(c(-c3ccccc3)c1)CN(C#N)C2` [Example 252, 6-(2-(methylsulfonyl)ethyl)-4-phenylisoindoline-2-carbonitrile], 1000 to 10000 nM.

`CS(=O)(=O)Cc1cc2c(c(-c3ccccc3)c1)CN(C#N)C2` [Example 253, 6-((methylsulfonyl)methyl)-4-phenylisoindoline-2-carbonitrile]: the 50% inhibitory concentration (IC50) was in the range of 1000 to 10000 nM. With `COCCc1cc2c(c(-c3ccc(C#N)cc3)c1)CN(C#N)C2` [Example 254, 4-(4-cyanophenyl)-6-(2-methoxyethyl)isoindoline-2-carbonitrile] the figure was 1000 to 10000 nM; with `COCCc1cc2c(c(-c3ccccc3C(N)=O)c1)CN(C#N)C2` [Example 255, 2-(2-cyano-6-(2-methoxyethyl)isoindolin-4-yl)benzamide], 1000 to 10000 nM. As for `N#Cc1ccc(-c2cc(CCc3cccnc3)cc3c2CN(C#N)C3)cc1` [Example 256, 4-(4-cyanophenyl)-6-(2-(pyridin-3-yl)ethyl)isoindoline-2-carbonitrile], the half-inhibitory concentration (IC50) fell in the range of 1000 to 10000 nM. As for `CC(=O)N1CCC(CCc2cc3c(c(-c4ccc(C#N)cc4)c2)CN(C#N)C3)CC1` [Example 257, 6-(2-(1-acetylpiperidin-4-yl)ethyl)-4-(4-cyanophenyl)isoindoline-2-carbonitrile], the IC50 lay in the range of 1000 to 10000 nM.

In the case of `N#Cc1ccc(-c2c(F)ccc3c2CN(C#N)C3)c(C(N)=O)c1` [Example 260, 5-cyano-2-(2-cyano-5-fluoroisoindolin-4-yl)benzamide], the IC50 lay in the range of 1000 to 10000 nM. With `N#Cc1ccc(-c2ccc(F)c3c2CN(C#N)C3)c(C(N)=O)c1` [Example 261, 5-cyano-2-(2-cyano-7-fluoroisoindolin-4-yl)benzamide] the figure was 1000 to 10000 nM; with `CN1CC(c2cc3c(c(-c4ccccc4)c2)CN(C#N)C3)CCC1=O` (stereo not drawn) [Example 262, 6-(1-methyl-6-oxopiperidin-3-yl)-4-phenylisoindoline-2-carbonitrile], 1000 to 10000 nM; with `Cn1cc(-c2cc3c(c(-c4ccccc4)c2)CN(C#N)C3)ccc1=O` [Example 263, 6-(1-methyl-6-oxo-1,6-dihydropyridin-3-yl)-4-phenylisoindoline-2-carbonitrile], 1000 to 10000 nM.

`N#Cc1ccc(-c2cc(NC(=O)C3CCOCC3)cc3c2CN(C#N)C3)cc1` [Example 264, N-(2-cyano-7-(4-cyanophenyl)isoindolin-5-yl)tetrahydro-2H-pyran-4-carboxamide]: the half-maximal inhibitory concentration (IC50) lay within 1000 to 10000 nM. The same measure for `CN1CC(C(=O)Nc2cc3c(c(-c4ccc(C#N)cc4)c2)CN(C#N)C3)CC1=O` (stereo not drawn) [Example 265, N-(2-cyano-7-(4-cyanophenyl)isoindolin-5-yl)-1-methyl-5-oxopyrrolidine-3-carboxamide]: 1000 to 10000 nM; for `CN1CC(C(=O)Nc2cc3c(c(-c4ccc(C#N)cc4)c2)CN(C#N)C3)CCC1=O` (stereo not drawn) [Example 266, N-(2-cyano-7-(4-cyanophenyl)isoindolin-5-yl)-1-methyl-6-oxopiperidine-3-carboxamide]: 1000 to 10000 nM; for `CN(C)CC(=O)Nc1cc2c(c(-c3ccc(C#N)cc3)c1)CN(C#N)C2` [Example 267, N-(2-cyano-7-(4-cyanophenyl)isoindolin-5-yl)-2-(dimethylamino)acetamide]: under 1000 nM. The same measure for `N#CN1Cc2cccc(N3C(=O)CCCC3=O)c2C1` [Example 268, 4-(2,6-dioxopiperidin-1-yl)isoindoline-2-carbonitrile]: 10000 to 30000 nM; for `CNc1cc2c(c(-c3ccc(C#N)cc3)c1)CN(C#N)C2` [Example 269, 4-(4-cyanophenyl)-6-(methylamino)isoindoline-2-carbonitrile]: 1000 to 10000 nM; for `CN(C)c1cc2c(c(-c3ccc(C#N)cc3)c1)CN(C#N)C2` [Example 270, 4-(4-cyanophenyl)-6-(dimethylamino)isoindoline-2-carbonitrile]: under 1000 nM. With `N#Cc1ccc(-c2cc(NCCO)cc3c2CN(C#N)C3)cc1` [Example 271, 4-(4-cyanophenyl)-6-((2-hydroxyethyl)amino)isoindoline-2-carbonitrile] the figure was 1000 to 10000 nM.

For `CC(C)Nc1cc2c(c(-c3ccc(C#N)cc3)c1)CN(C#N)C2` [Example 272, 4-(4-cyanophenyl)-6-(isopropylamino)isoindoline-2-carbonitrile], the 50% inhibitory concentration (IC50) is 1000 to 10000 nM. `N#Cc1ccc(-c2cc(NC3CCS(=O)(=O)CC3)cc3c2CN(C#N)C3)cc1` [Example 273, 4-(4-cyanophenyl)-6-((1,1-dioxidotetrahydro-2H-thiopyran-4-yl)amino)isoindoline-2-carbonitrile]: the IC50 was in the range of 1000 to 10000 nM. The same measure for `N#Cc1ccc(-c2cc(NC3CCOCC3)cc3c2CN(C#N)C3)cc1` [Example 274, 4-(4-cyanophenyl)-6-((tetrahydro-2H-pyran-4-yl)amino)isoindoline-2-carbonitrile]: 1000 to 10000 nM; for `N#Cc1ccc(-c2cc(NCC3CCOCC3)cc3c2CN(C#N)C3)cc1` [Example 275, 4-(4-cyanophenyl)-6-(((tetrahydro-2H-pyran-4-yl)methyl)amino)isoindoline-2-carbonitrile]: under 1000 nM; for `Cn1nccc1CNc1cc2c(c(-c3ccc(C#N)cc3)c1)CN(C#N)C2` [Example 276, 4-(4-cyanophenyl)-6-(((1-methyl-1H-pyrazol-5-yl)methyl)amino)isoindoline-2-carbonitrile]: 1000 to 10000 nM.

On to `CCNc1cc2c(c(-c3ccc(C#N)cc3)c1)CN(C#N)C2` [Example 277, 4-(4-cyanophenyl)-6-(ethylamino)isoindoline-2-carbonitrile], for which the IC50 was 1000 to 10000 nM. The same measure for `N#Cc1ccc(-c2cc(N3CCS(=O)(=O)CC3)cc3c2CN(C#N)C3)cc1` [Example 278, 4-(4-cyanophenyl)-6-(1,1-dioxidothiomorpholino)isoindoline-2-carbonitrile]: 1000 to 10000 nM.

As for `CCN(CC)c1cc2c(c(-c3ccc(C#N)cc3)c1)CN(C#N)C2` [Example 279, 4-(4-Cyanophenyl)-6-(diethylamino)isoindoline-2-carbonitrile], the 50% inhibitory concentration (IC50) fell in the range of 1000 to 10000 nM. `N#Cc1ccc(-c2cc(NCC(O)CO)cc3c2CN(C#N)C3)cc1` (stereo not drawn) [Example 280, 4-(4-Cyanophenyl)-6-((2,3-dihydroxypropyl)amino)isoindoline-2-carbonitrile]: the IC50 fell in the range of 1000 to 10000 nM. With `N#Cc1ccc(-c2cc(NCC3CCOCC3)cc3c2CN(C#N)C3)c(C(N)=O)c1` [Example 281, 5-Cyano-2-(2-cyano-6-(((tetrahydro-2H-pyran-4-yl)methyl)amino)isoindolin-4-yl)benzamide], the half-inhibitory concentration (IC50) was in the range of 1000 to 10000 nM.

On to `N#CN1Cc2cc(NC[C@H](O)CO)cc(-c3ccc(F)cc3)c2C1` [Example 282, (S)-6((2,3-dihydroxypropyl)amino)-4-(4-fluorophenyl)isoindoline-2-carbonitrile], for which the IC50 is 1000 to 10000 nM. With `N#Cc1ccccc1-c1cc(NC[C@H](O)CO)cc2c1CN(C#N)C2` [Example 283, (S)-4-(2-cyanophenyl)-6-((2,3-dihydroxypropyl)amino)isoindoline-2-carbonitrile], the half-inhibitory concentration (IC50) was under 1000 nM.
